ChEMBL document CHEMBL1201862, “PubChem BioAssay data set” (2004)
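1) Cells in 96-well plates. 2) Compound, 48 h, 5 concentrations. 3) Linear interpolation between surrounding doses. 4) Unreached endpoint = highest concentration. At the GI50, growth is halved.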 Activity calls are given as the source filed them. Rule as the data show it: active = GI50 up to about 1.1 µM and inactive = higher.

Tests used:
Assay in all cases: DTP human tumour cell line panel, 48 h
M14 = tested on: M14
HOP-62 = tested on: HOP-62
RPMI-8226 = tested on: RPMI-8226
HT-29 = tested on: HT-29
SF-539 = tested on: SF-539
Malme-3M = tested on: Malme-3M
SR = tested on: SR
SF-268 = tested on: SF-268
MDA-N = tested on: MDA-N
SF-295 = tested on: SF-295
IGROV-1 = tested on: IGROV-1
Hs-578T = tested on: Hs-578T
NCI-H23 = tested on: NCI-H23
T47D = tested on: T47D
COLO 205 = tested on: COLO 205
EKVX = tested on: EKVX
HCT-15 = tested on: HCT-15
OVCAR-5 = tested on: OVCAR-5
SW-620 = tested on: SW-620
U-251 = tested on: U-251
NCI-H522 = tested on: NCI-H522
DU-145 = tested on: DU-145
MDA-MB-435 = tested on: MDA-MB-435
MOLT-4 = tested on: MOLT-4
SK-OV-3 = tested on: SK-OV-3
CAKI-1 = tested on: CAKI-1
PC-3 = tested on: PC-3
K562 = tested on: K562
A498 = tested on: A498
OVCAR-8 = tested on: OVCAR-8
786-0 = tested on: 786-0
NCI-H460 = tested on: NCI-H460
ACHN = tested on: ACHN
HOP-92 = tested on: HOP-92
BT-549 = tested on: BT-549
HL-60 = tested on: HL-60
LOX IMVI = tested on: LOX IMVI
TK-10 = tested on: TK-10
RXF 393 = tested on: RXF 393
NCI/ADR-RES = tested on: NCI/ADR-RES
OVCAR-3 = tested on: OVCAR-3
HCT-116 = tested on: HCT-116
MCF7 = tested on: MCF7
SK-MEL-2 = tested on: SK-MEL-2
SNB-19 = tested on: SNB-19
UO-31 = tested on: UO-31
SNB-75 = tested on: SNB-75
OVCAR-4 = tested on: OVCAR-4
SK-MEL-5 = tested on: SK-MEL-5
A549 = tested on: A549
UACC-62 = tested on: UACC-62
MDA-MB-231 = tested on: MDA-MB-231
SN12C = tested on: SN12C
NCI-H226 = tested on: NCI-H226
SK-MEL-28 = tested on: SK-MEL-28
KM12 = tested on: KM12
CCRF-CEM = tested on: CCRF-CEM
UACC-257 = tested on: UACC-257
HCC 2998 = tested on: HCC 2998

## Cc1ccc(C2(C)CC/C(=N/N=C3/CCC(C)(c4ccc(C)c(C)c4)c4cc(C)c(C)cc43)c3cc(C)c(C)cc32)cc1C (stereo not drawn)
M14
  GI50: > 100 µM (inactive)
HOP-62
  GI50: > 100 µM (inactive)
RPMI-8226
  GI50: > 100 µM (inactive)
HT-29
  GI50: > 100 µM (inactive)
SF-539
  GI50: > 100 µM (inactive)
Malme-3M
  GI50: > 100 µM (inactive)
SR
  GI50: > 100 µM (inactive)
SF-268
  GI50: > 100 µM (inactive)
MDA-N
  GI50: > 100 µM (inactive)
SF-295
  GI50: > 100 µM (inactive)
IGROV-1
  GI50: > 100 µM (inactive)
Hs-578T
  GI50: > 100 µM (inactive)
NCI-H23
  GI50: > 100 µM (inactive)
T47D
  GI50: > 100 µM (inactive)
COLO 205
  GI50: > 100 µM (inactive)
EKVX
  GI50: > 100 µM (inactive)
HCT-15
  GI50: > 100 µM
OVCAR-5
  GI50: > 100 µM (inactive)
SW-620
  GI50: > 100 µM (inactive)
U-251
  GI50: > 100 µM (inactive)
NCI-H522
  GI50: > 100 µM (inactive)
DU-145
  GI50: > 100 µM (inactive)
MDA-MB-435
  GI50: > 100 µM (inactive)
MOLT-4
  GI50: > 100 µM (inactive)
SK-OV-3
  GI50: > 100 µM (inactive)
CAKI-1
  GI50: > 100 µM (inactive)
PC-3
  GI50: > 100 µM (inactive)
K562
  GI50: > 100 µM (inactive)
A498
  GI50: > 100 µM (inactive)
OVCAR-8
  GI50: > 100 µM (inactive)
786-0
  GI50: > 100 µM (inactive)
NCI-H460
  GI50: > 100 µM (inactive)
ACHN
  GI50: > 100 µM (inactive)
HOP-92
  GI50: > 100 µM (inactive)
BT-549
  GI50: > 100 µM (inactive)
HL-60
  GI50: > 100 µM (inactive)
LOX IMVI
  GI50: > 100 µM (inactive)
TK-10
  GI50: > 100 µM (inactive)
RXF 393
  GI50: > 100 µM (inactive)
NCI/ADR-RES
  GI50: > 100 µM (inactive)
OVCAR-3
  GI50: > 100 µM (inactive)
HCT-116
  GI50: > 100 µM (inactive)
MCF7
  GI50: > 100 µM (inactive)
SK-MEL-2
  GI50: > 100 µM (inactive)
SNB-19
  GI50: > 100 µM (inactive)
UO-31
  GI50: > 100 µM (inactive)
SNB-75
  GI50: > 100 µM (inactive)
OVCAR-4
  GI50: > 100 µM (inactive)
SK-MEL-5
  GI50: > 100 µM (inactive)
A549
  GI50: > 100 µM (inactive)
UACC-62
  GI50: > 100 µM (inactive)
MDA-MB-231
  GI50: > 100 µM (inactive)
SN12C
  GI50: > 100 µM (inactive)
NCI-H226
  GI50: > 100 µM (inactive)
SK-MEL-28
  GI50: > 100 µM (inactive)
KM12
  GI50: > 100 µM (inactive)

## N#Cc1c(-c2ccc(Cl)cc2)cc(-c2nc3ccccc3[nH]2)nc1N
M14
  GI50: 4.32 µM (inactive)
HOP-62
  GI50: 14.4 µM (inactive)
RPMI-8226
  GI50: 4.22 µM (inactive)
HT-29
  GI50: 9.16 µM (inactive)
SF-539
  GI50: 15.3 µM (inactive)
Malme-3M
  GI50: 16.6 µM (inactive)
SR
  GI50: 4.56 µM (inactive)
SF-268
  GI50: 7.98 µM (inactive)
MDA-N
  GI50: 6.49 µM (inactive)
SF-295
  GI50: 10.7 µM (inactive)
IGROV-1
  GI50: 2.39 µM (inactive)
CCRF-CEM
  GI50: 5.57 µM (inactive)
Hs-578T
  GI50: 16.5 µM (inactive)
NCI-H23
  GI50: 14.2 µM (inactive)
T47D
  GI50: 3.12 µM (inactive)
COLO 205
  GI50: 4.3 µM (inactive)
EKVX
  GI50: 11 µM (inactive)
HCT-15
  GI50: 10.9 µM
OVCAR-5
  GI50: 19.5 µM (inactive)
SW-620
  GI50: 15 µM (inactive)
NCI-H522
  GI50: 13.7 µM (inactive)
DU-145
  GI50: 6.98 µM (inactive)
MDA-MB-435
  GI50: 5.43 µM (inactive)
MOLT-4
  GI50: 2.92 µM (inactive)
SK-OV-3
  GI50: 19.5 µM (inactive)
CAKI-1
  GI50: 17.9 µM (inactive)
PC-3
  GI50: 11 µM (inactive)
K562
  GI50: 6.71 µM (inactive)
A498
  GI50: 8.85 µM (inactive)
OVCAR-8
  GI50: 13 µM (inactive)
786-0
  GI50: 11.3 µM (inactive)
NCI-H460
  GI50: 7.19 µM (inactive)
ACHN
  GI50: 11.1 µM (inactive)
HOP-92
  GI50: 11 µM (inactive)
BT-549
  GI50: 14.4 µM (inactive)
HL-60
  GI50: 11.2 µM (inactive)
LOX IMVI
  GI50: 10.2 µM (inactive)
TK-10
  GI50: 10.1 µM (inactive)
UACC-257
  GI50: 5.14 µM (inactive)
NCI/ADR-RES
  GI50: 15 µM (inactive)
OVCAR-3
  GI50: 12.5 µM (inactive)
HCT-116
  GI50: 10.3 µM (inactive)
HCC 2998
  GI50: 4.02 µM (inactive)
MCF7
  GI50: 3.49 µM (inactive)
SK-MEL-2
  GI50: 12.6 µM (inactive)
SNB-19
  GI50: 12.1 µM (inactive)
UO-31
  GI50: 9.1 µM (inactive)
SNB-75
  GI50: 10.8 µM (inactive)
OVCAR-4
  GI50: 18.6 µM (inactive)
SK-MEL-5
  GI50: 6.67 µM (inactive)
A549
  GI50: 5.92 µM (inactive)
UACC-62
  GI50: 7.66 µM (inactive)
MDA-MB-231
  GI50: 12.2 µM (inactive)
SN12C
  GI50: 13.4 µM (inactive)
NCI-H226
  GI50: 10.8 µM (inactive)
SK-MEL-28
  GI50: 12.2 µM (inactive)
KM12
  GI50: 10 µM (inactive)
